Test results published in patent US20160251341A1, “SUBSTITUTED TRIAZOLE COMPOUNDS AS SERINE PROTEASE INHIBITORS” (Verseon Corporation, priority 2015, published 2016).
Counter-ions that a name gives are not always drawn.

Target: T1, Human thrombin (Homo sapiens, UniProt P00734)
T1 construct: purchased Haematologic Technologies Inc
Test: Thrombin protease inhibition assay (chromogenic substrate S-2238)
Format: biochemical
Details: 3 nM human thrombin, 125 μM S-2238, 10 min pre-incubation, RT
Experimental: The thrombin activity reported herein (e.g., Table A) was obtained as follows. Human thrombin was obtained from Haematologic Technologies Inc. The chromogenic substrate S-2238 was obtained from DiaPharma. Thrombin was assayed in buffer containing 0.05 M Tris (pH 7.4), 0.015 M NaCl and 0.01% PEG-8000. The final concentration of enzyme used was 3 nM thrombin. The final concentration of substrate used was 125 μM S-2238 for thrombin. All assays were performed in 96-well microtiter plates at room temperature (RT). The enzyme and inhibitor were pre-incubated for 10 minutes then substrate was added and read at 405 nm in a SpectraMax Plus Spectrophotometer (Molecular Devices). Inhibitor IC50 values were determined by adding test compound as ten point, three-fold serial dilutions in buffer solution, as known in the art. The plate was read at 10 minutes after substrate addition. The IC50 was calculated by plotting the percent (%) inhibition against compound concentration and fitting the data to a constrained four parameter sigmoidal curve, as known in the art.

| Structure (SMILES) | IC50 |
| --- | --- |
| O=C(c1ccccc1)n1nc(C2CCNCC2)nc1NCc1ccc(Cl)s1 [Entry 15, 1-benzoyl-N-[(5-chlorothiophen-2-yl)methyl]-3-(piperidin-4-yl)-1H-1,2,4-triazol-5-amine hydrochloride] | ≤ 100 nM |
| COc1ccccc1C(=O)n1nc(C2=C(O)CCCC2)nc1NCc1ccccc1 [Entry 16, 2-[5-(benzylamino)-1-(2-methoxybenzoyl)-1H-1,2,4-triazol-3-yl]cyclohex-1-en-1-ol] | ≥ 100000 nM |
| OC1=C(c2n[nH]c(NCc3ccccc3)n2)CCCC1 [Entry 17, 2-[5-(benzylamino)-1H-1,2,4-triazol-3-yl]cyclohex-1-en-1-ol] | ≥ 100000 nM |
| COC1CCCCC1c1n[nH]c(N)n1 (stereo not drawn) [Entry 18, 3-(2-methoxycyclohexyl)-1H-1,2,4-triazol-5-amine] | ≥ 100000 nM |
| COc1ccccc1C(=O)n1nc(C2CN(S(=O)(=O)N(C)C)C2)nc1NCc1ccc(Cl)s1 [Entry 19, 3-(5-[(5-chlorothiophen-2-yl)methyl]amino-1-(2-methoxybenzoyl)-1H-1,2,4-triazol-3-yl)-N,N-dimethylazetidine-1-sulfonamide] | ≤ 100 nM |
| O=C(c1ccccc1)n1nc(C2CNC2)nc1NCc1ccc(Cl)s1 [Entry 20, 3-(azetidin-3-yl)-1-benzoyl-N-[(5-chlorothiophen-2-yl)methyl]-1H-1,2,4-triazol-5-amine] | ≥ 100000 nM |
| O=C(c1cccc2c1OCCO2)n1nc(C2CNC2)nc1NCc1ccc(Cl)s1 [Entry 21, 3-(azetidin-3-yl)-N-[(5-chlorothiophen-2-yl)methyl]-1-(2,3-dihydro-1,4-benzodioxine-5-carbonyl)-1H-1,2,4-triazol-5-amine; trifluoroacetic acid] | ≤ 100 nM |
| O=C(C1CCCCC1)n1nc(C2CNC2)nc1NCc1ccc(Cl)s1 [Entry 22, 3-(azetidin-3-yl)-N-[(5-chlorothiophen-2-yl)methyl]-1-cyclohexanecarbonyl-1H-1,2,4-triazol-5-amine; trifluoroacetic acid] | 100 to 1000 nM |
| O=C(C1CCCC1)n1nc(C2CNC2)nc1NCc1ccc(Cl)s1 [Entry 23, 3-(azetidin-3-yl)-N-[(5-chlorothiophen-2-yl)methyl]-1-cyclopentanecarbonyl-1H-1,2,4-triazol-5-amine] | ≥ 100000 nM |
| Nc1nc(C2CCOCC2)n[nH]1 [Entry 24, 3-(oxan-4-yl)-1H-1,2,4-triazol-5-amine] | ≥ 100000 nM |
| Nc1nc(C2CCCO2)n[nH]1 (stereo not drawn) [Entry 25, 3-(oxolan-2-yl)-1H-1,2,4-triazol-5-amine] | ≥ 100000 nM |
| Nc1nc(C2CCOC2)n[nH]1 (stereo not drawn) [Entry 26, 3-(oxolan-3-yl)-1H-1,2,4-triazol-5-amine] | ≥ 100000 nM |
| COc1ccccc1C(=O)n1nc(C2CN(S(=O)(=O)c3ccccc3)C2)nc1NCc1ccc(Cl)s1 [Entry 27, 3-[1-(benzenesulfonyl)azetidin-3-yl]-N-[(5-chlorothiophen-2-yl)methyl]-1-(2-methoxybenzoyl)-1H-1,2,4-triazol-5-amine] | ≤ 100 nM |
| COc1ccccc1C(=O)n1nc(C2CCN(S(=O)(=O)c3ccccc3)CC2)nc1NCc1ccc(Cl)s1 [Entry 28, 3-[1-(benzenesulfonyl)piperidin-4-yl]-N-[(5-chlorothiophen-2-yl)methyl]-1-(2-methoxybenzoyl)-1H-1,2,4-triazol-5-amine] | ≤ 100 nM |
| Nc1nc(C2=C(OCc3ccc(Cl)s3)CCCC2)n[nH]1 [Entry 29, 3-2-[(5-chlorothiophen-2-yl)methoxy]cyclohex-1-en-1-yl-1H-1,2,4-triazol-5-amine] | ≥ 100000 nM |
| COc1ccccc1C(=O)n1nc(C2CCN(C(=O)N(C)C)CC2)nc1NCc1ccc(Cl)s1 [Entry 30, 4-(5-[(5-chlorothiophen-2-yl)methyl]amino-1-(2-methoxybenzoyl)-1H-1,2,4-triazol-3-yl)-N,N-dimethylpiperidine-1-carboxamide] | ≤ 100 nM |
| COc1ccccc1C(=O)n1nc(C2CCN(C(N)=O)CC2)nc1NCc1ccc(Cl)s1 [Entry 31, 4-(5-[(5-chlorothiophen-2-yl)methyl]amino-1-(2-methoxybenzoyl)-1H-1,2,4-triazol-3-yl)piperidine-1-carboxamide] | ≤ 100 nM |
| O=C(c1cccc2c1OCCO2)n1nc(C2CCOCC2)nc1NCc1ccc(Cl)s1 [Entry 32, N-[(5-chlorothiophen-2-yl)methyl]-1-(2,3-dihydro-1,4-benzodioxine-5-carbonyl)-3-(oxan-4-yl)-1H-1,2,4-triazol-5-amine] | ≤ 100 nM |

| Structure (SMILES) | IC50 |
| --- | --- |
| O=C(c1cccc2c1OCCO2)n1nc(C2CCCO2)nc1NCc1ccc(Cl)s1 (stereo not drawn) [Entry 33, N-[(5-chlorothiophen-2-yl)methyl]-1-(2,3-dihydro-1,4-benzodioxine-5-carbonyl)-3-(oxolan-2-yl)-1H-1,2,4-triazol-5-amine] | ≤ 100 nM |
| O=C(c1cccc2c1OCCO2)n1nc(C2CCOC2)nc1NCc1ccc(Cl)s1 (stereo not drawn) [Entry 34, N-[(5-chlorothiophen-2-yl)methyl]-1-(2,3-dihydro-1,4-benzodioxine-5-carbonyl)-3-(oxolan-3-yl)-1H-1,2,4-triazol-5-amine] | ≤ 100 nM |
| O=C(c1cccc2c1OCCO2)n1nc(C2CCNCC2)nc1NCc1ccc(Cl)s1 [Entry 35, N-[(5-chlorothiophen-2-yl)methyl]-1-(2,3-dihydro-1,4-benzodioxine-5-carbonyl)-3-(piperidin-4-yl)-1H-1,2,4-triazol-5-amine hydrochloride] | ≤ 100 nM |
| COc1ccc(C(=O)n2nc(C3CCOCC3)nc2NCc2ccc(Cl)s2)c(OC)c1 [Entry 36, N-[(5-chlorothiophen-2-yl)methyl]-1-(2,4-dimethoxybenzoyl)-3-(oxan-4-yl)-1H-1,2,4-triazol-5-amine] | ≤ 100 nM |
| COc1ccc(C(=O)n2nc(C3CCCO3)nc2NCc2ccc(Cl)s2)c(OC)c1 (stereo not drawn) [Entry 37, N-[(5-chlorothiophen-2-yl)methyl]-1-(2,4-dimethoxybenzoyl)-3-(oxolan-2-yl)-1H-1,2,4-triazol-5-amine] | ≤ 100 nM |
| COc1ccc(C(=O)n2nc(C3CCOC3)nc2NCc2ccc(Cl)s2)c(OC)c1 (stereo not drawn) [Entry 38, N-[(5-chlorothiophen-2-yl)methyl]-1-(2,4-dimethoxybenzoyl)-3-(oxolan-3-yl)-1H-1,2,4-triazol-5-amine] | ≤ 100 nM |
| COc1ccccc1C(=O)n1nc(C2CCCCC2OC)nc1NCc1ccc(Cl)s1 (stereo not drawn) [Entry 39, N-[(5-chlorothiophen-2-yl)methyl]-1-(2-methoxybenzoyl)-3-(2-methoxycyclohexyl)-1H-1,2,4-triazol-5-amine] | ≤ 100 nM |
| COc1ccccc1C(=O)n1nc(C2CCOCC2)nc1NCc1ccc(Cl)s1 [Entry 40, N-[(5-chlorothiophen-2-yl)methyl]-1-(2-methoxybenzoyl)-3-(oxan-4-yl)-1H-1,2,4-triazol-5-amine] | ≤ 100 nM |
| COc1ccccc1C(=O)n1nc(C2CCCO2)nc1NCc1ccc(Cl)s1 (stereo not drawn) [Entry 41, N-[(5-chlorothiophen-2-yl)methyl]-1-(2-methoxybenzoyl)-3-(oxolan-2-yl)-1H-1,2,4-triazol-5-amine] | ≤ 100 nM |
| COc1ccccc1C(=O)n1nc(C2CCOC2)nc1NCc1ccc(Cl)s1 (stereo not drawn) [Entry 42, N-[(5-chlorothiophen-2-yl)methyl]-1-(2-methoxybenzoyl)-3-(oxolan-3-yl)-1H-1,2,4-triazol-5-amine] | ≤ 100 nM |
| COc1ccccc1C(=O)n1nc(C2CCNCC2)nc1NCc1ccc(Cl)s1 [Entry 43, N-[(5-chlorothiophen-2-yl)methyl]-1-(2-methoxybenzoyl)-3-(piperidin-4-yl)-1H-1,2,4-triazol-5-amine] | ≤ 100 nM |
| COc1ccccc1C(=O)n1nc(C2CCN(C(=O)N3CCCCC3)CC2)nc1NCc1ccc(Cl)s1 [Entry 44, N-[(5-chlorothiophen-2-yl)methyl]-1-(2-methoxybenzoyl)-3-[1-(piperidine-1-carbonyl)piperidin-4-yl]-1H-1,2,4-triazol-5-amine] | ≤ 100 nM |
| COc1ccccc1C(=O)n1nc(C2CN(S(=O)(=O)N3CCCCC3)C2)nc1NCc1ccc(Cl)s1 [Entry 45, N-[(5-chlorothiophen-2-yl)methyl]-1-(2-methoxybenzoyl)-3-[1-(piperidine-1-sulfonyl)azetidin-3-yl]-1H-1,2,4-triazol-5-amine] | ≤ 100 nM |
| COc1ccccc1C(=O)n1nc(C2CN(S(=O)(=O)C(C)C)C2)nc1NCc1ccc(Cl)s1 [Entry 46, N-[(5-chlorothiophen-2-yl)methyl]-1-(2-methoxybenzoyl)-3-[1-(propane-2-sulfonyl)azetidin-3-yl]-1H-1,2,4-triazol-5-amine] | ≤ 100 nM |
| COc1ccccc1C(=O)n1nc(C2CCN(S(=O)(=O)C(C)C)CC2)nc1NCc1ccc(Cl)s1 [Entry 47, N-[(5-chlorothiophen-2-yl)methyl]-1-(2-methoxybenzoyl)-3-[1-(propane-2-sulfonyl)piperidin-4-yl]-1H-1,2,4-triazol-5-amine] | ≤ 100 nM |
| COc1ccccc1C(=O)n1nc(C2CCN(C(=O)N3CCCC3)CC2)nc1NCc1ccc(Cl)s1 [Entry 48, N-[(5-chlorothiophen-2-yl)methyl]-1-(2-methoxybenzoyl)-3-[1-(pyrrolidine-1-carbonyl)piperidin-4-yl]-1H-1,2,4-triazol-5-amine] | ≤ 100 nM |
| COc1ccccc1C(=O)n1nc(C2CN(S(=O)(=O)N3CCCC3)C2)nc1NCc1ccc(Cl)s1 [Entry 49, N-[(5-chlorothiophen-2-yl)methyl]-1-(2-methoxybenzoyl)-3-[1-(pyrrolidine-1-sulfonyl)azetidin-3-yl]-1H-1,2,4-triazol-5-amine] | ≤ 100 nM |
| Cc1ccccc1C(=O)n1nc(C2CCOCC2)nc1NCc1ccc(Cl)s1 [Entry 50, N-[(5-chlorothiophen-2-yl)methyl]-1-(2-methylbenzoyl)-3-(oxan-4-yl)-1H-1,2,4-triazol-5-amine] | ≤ 100 nM |
